Measurements as given in patent US9346761B2, “Arginine methyltransferase inhibitors and uses thereof” (Epizyme, Inc., priority 2013, dated 2016).

Columns and labels:
Full-length human PRMT3 = target: T1, Full-length human PRMT3 (Homo sapiens, UniProt O60678); test: PRMT3 biochemical assay (3H-SAM Flashplate, peptide substrate)
T1 construct: GST-tagged PRMT3; made in house; host or cells: E. coli BL21(DE3) Gold (pGEX-KG)
From the text: (§1) General Materials. S-adenosylmethionine (SAM), S-adenosylhomocysteine (SAH), bicine, Tween20, dimethylsulfoxide (DMSO), bovine skin gelatin (BSG),), isopropyl-β-D-thiogalactopyranoside (IPTG), and Tris(2-carboxyethyl)phosphine hydrochloride solution (TCEP) were purchased from Sigma-Aldrich at the highest level of purity possible. ^3H-SAM was purchase from American Radiolabeled Chemicals with a specific activity of 80 Ci/mmol. 384-well streptavidin Flashplates were purchased from PerkinElmer.
Substrates. Peptide containing the classic RMT substrate motif was synthesized with an N-terminal linker-affinity tag motif and a C-terminal amide cap by 21st Century Biochemicals. The peptide was purified by high-performance liquid chromatography (HPLC) to greater than 95% purity and confirmed by liquid chromatography mass spectrometry (LC-MS). The sequence was Biot-Ahx-[…]-amide (SEQ ID NO.:11).
Molecular Biology: : Full-length human PRMT3 (NM_005788.3) isoform 1 transcript clone was amplified from an HEK 293 cDNA library and subcloned into pGEX-KG (GE Life Sciences). The resulting construct encodes an N-terminal GST tag and a thrombin cleavage sequence ([…] […] […] […]) (SEQ ID NO.:12) fused directly to Cys 2 of PRMT3.
Protein Expression. E. coli (BL21(DE3) Gold, Stratagene) made competent by the CaCl2 method were transformed with the PRMT3 construct and ampicillin selection. Protein over-expression was accomplished by growing the PRMT3 expressing E. coli clone and inducing expression with 0.3 mM IPTG at 16° C. The culture was grown for 12 hours, harvested by centrifugation, and stored at −80° C. for purification.
Protein Purification. […] GST-tagged PRMT3 eluted with 25-400 mM phosphate in buffer C. Protein was concentrated and buffer was exchanged to 20 mM Tris, 150 mM NaCl, 5% glycerol, 5 mM β-mercaptoethanol, pH7.8 by ultrafiltration. The purity of recovered protein was 70%.
(§2) General Procedure for PRMT3 Enzyme Assays on Peptide Substrates. The assays were all performed in a buffer consisting of 20 mM Bicine (pH=7.6), 1 mM TCEP, 0.005% BSG, and 0.002% Tween 20, prepared on the day of use. Compounds in 100% DMSO (1 ul) were spotted into a polypropylene 384-well V-bottom plates (Greiner) using a Platemate Plus outfitted with a 384-channel head (Thermo Scientific). DMSO (1 ul) was added to Columns 11, 12, 23, 24, rows A-H for the maximum signal control and 1 ul of SAH, a known product and inhibitor of PRMT3, was added to columns 11, 12, 23, 24, rows I-P for the minimum signal control. A cocktail (40 ul) containing the PRMT3 enzyme was added by Multidrop Combi (Thermo-Fisher). The compounds were allowed to incubate with PRMT3 for 30 min at room temperature, then a cocktail (10 ul) containing SAM and peptide was added to initiate the reaction (final volume=51 ul). The final concentrations of the components were as follows: PRMT3 was 0.5 nM, ^3H-SAM was 100 nM, non-radiolabeled SAM was 1.8 uM, peptide was 330 nM, SAH in the minimum signal control wells was 1 mM, and the DMSO concentration was 2%. The assays were stopped by the addition of potassium chloride (10 ul) to a final concentration of 100 mM. 50 ul of the reaction in the 384-well polypropylene plate was then transferred to a 384-well Flashplate and the biotinylated peptides were allowed to bind to the streptavidin surface for at least 1 hour before being washed once with 0.1% Tween20 in a Biotek ELx405 plate washer. The plates were then read in a PerkinElmer TopCount plate reader to measure the quantity of ^3H-labeled peptide bound to the Flashplate surface, measured as disintegrations per minute (dpm) or alternatively, referred to as counts per minute (cpm).
(§3) Where dpm=disintegrations per minute, cmpd=signal in assay well, and min and max are the respective minimum and maximum signal controls.
Where top and bottom are the normally allowed to float, but may be fixed at 100 or 0 respectively in a 3-parameter fit. […]

[1] = tested on: mono-methyl arginine in RKO cells; test: RKO methylation assay, In Cell Western for mono-methyl arginine and DNA content; assay type: cell-based; details: Homo sapiens; In Cell Western, RKO cells, 72 hours, percent activation of mono-methyl arginine signal; read-out: EC30
From the text: RKO adherent cells were purchased from ATCC (American Type Culture Collection), Manassas, Va., USA. DMEM/Glutamax medium, penicillin-streptomycin, heat inactivated fetal bovine serum, 0.05% trypsin and D-PBS were purchased from Life Technologies, Grand Island, N.Y., USA. Odyssey blocking buffer, 800CW goat anti-rabbit IgG (H+L) antibody, and Licor Odyssey infrared scanner were purchased from Licor Biosciences, Lincoln, Nebr., USA. Mono-methyl arginine antibody was purchased from Cell Signaling Technology, Danvers, Mass., USA. Methanol was purchased from VWR, Franklin, Mass., USA. 10% Tween 20 was purchased from KPL, Inc., Gaithersburg, Md., USA. […] was purchased from Biostatus Limited, Leicestershire, UK.
RKO adherent cells were maintained in growth medium (DMEM/Glutamax medium supplemented with 10% v/v heat inactivated fetal bovine serum and 100 units/mL penicillin-streptomycin) and cultured at 37° C. under 5% CO2
Cell Treatment, in Cell Western (ICW) for Detection of Mono-Methyl Arginine and DNA Content. […] Compound (100 nL) from a 96-well source plate was added directly to 384 well cell plate. Plates were incubated at 37° C., 5% CO2 for 72 hours. After three days of incubation, plates were brought to room temperature outside of the incubator for ten minutes and blotted on paper towels to remove cell media. 50 μL of ice cold 100% methanol was added directly to each well and incubated for 30 min at room temperature. After 30 min, plates were transferred to a Biotek EL406 plate washer and washed 2 times with 100 μL per well of wash buffer (1×PBS). Next 60 μL per well of Odyssey blocking buffer (Odyssey Buffer with 0.1% Tween 20 (v/v)) were added to each plate and incubated 1 hour at room temperature. Blocking buffer was removed and 20 μL per well of primary antibody was added (mono-methyl arginine diluted 1:200 in Odyssey buffer with 0.1% Tween 20 (v/v)) and plates were incubated overnight (16 hours) at 4° C. Plates were washed 5 times with 100 μL per well of wash buffer. […] The plates were washed 5 times with 100 μL per well wash buffer then 2 times with 100 μL per well of water. Plates were allowed to dry at room temperature then imaged on the Licor Odyssey machine which measures integrated intensity at 700 nm and 800 nm wavelengths. Both 700 and 800 channels were scanned.
Calculations: First, the ratio for each well was determined by:
Each plate included fourteen control wells of DMSO only treatment (minimum activation) as well as fourteen control wells for maximum activation treated with 20 μM of a reference compound. The average of the ratio values for each control type was calculated and used to determine the percent activation for each test well in the plate. Reference compound was serially diluted three-fold in DMSO for a total of nine test concentrations, beginning at 20 μM. Percent activation was determined and EC30 curves were generated using triplicate wells per concentration of compound.

[2] = target: T2, Full-length human PRMT1 isoform 1 (Homo sapiens, UniProt Q99873); test: PRMT1 biochemical assay (3H-SAM Flashplate, peptide substrate)
T2 construct: GST-tagged PRMT1; made in house; host or cells: High Five insect cells (baculovirus, pFastBacI)
From the text: as §1, with “(BSG),” for “(BSG),), isopropyl-β-D-thiogalactopyranoside (IPTG),”
Protein Expression. Recombinant baculovirus were generated according to Bac-to-Bac kit instructions (Life Technologies). […] Infections were carried out at 27° C. for 48 hours, harvested by centrifugation, and stored at −80° C. for purification.
Protein Purification. […] GST-tagged PRMT1 was eluted with 50 mM Tris, 2 mM glutathione, pH 7.8, dialysed in buffer A and concentrated to 1 mg/mL.
as §2, with “PRMT1” for “PRMT3”, “Compounds in 100% DMSO (1 ul) were spotted into a polypropylene 384-well V-bottom plates (Greiner) using a Platemate Plus outfitted with a 384-channel head (Thermo Scientific).” left out, “PRMT1,” for “PRMT3,”, “The final concentrations of the components were as follows: PRMT3 was 0.5 nM, ^3H-SAM was 100 nM, non-radiolabeled SAM was 1.8 uM, peptide was 330 nM, SAH in the minimum signal control wells was 1 mM, and the DMSO concentration was 2%.” left out, “non-radiolabeled SAM” for “potassium chloride”, “300 uM, which dilutes the ^3H-SAM to a level where its incorporation into the peptide substrate is no longer detectable.” for “100 mM.”
as §3
(§4) Where top and bottom are the normally allowed to float, but may be fixed at 100 or 0 respectively in a 3-parameter fit. The Hill Coefficient normally allowed to float but may also be fixed at 1 in a 3-parameter fit. Y is the % inhibition and X is the compound concentration.

Full-length human PRMT6 = target: T3, Full-length human PRMT6 (Homo sapiens, UniProt Q96LA8); test: PRMT6 biochemical assay (3H-SAM Flashplate, peptide substrate)
T3 construct: Flag-PRMT6-His was eluted with 200 ug/ml FLAG peptide in the same buffer; made in house; host or cells: HEK 293F cells (BacMam virus, pFastBacMam)
From the text: as §1, with “(BSG), sodium butyrate” for “(BSG),), isopropyl-β-D-thiogalactopyranoside (IPTG),”
Substrates. Peptide representative of human histone H4 residues 36-50 was synthesized with an N-terminal linker-affinity tag motif and a C-terminal amide cap by 21st Century Biochemicals.
The amplified gene was subcloned into pFastBacMam (Viva Biotech).
Protein Expression. Recombinant baculovirus were generated according to Bac-to-Bac kit instructions (Life Technologies). […] Infections were carried out at 37° C. for 48 hours, harvested by centrifugation, and stored at −80° C. for purification.
Protein Purification. […] Column was washed with 20 mM imidazole in the same buffer and Flag-PRMT6-His was eluted with 150 mM imidazole. Pooled fractions were dialysed against buffer Ni-A and further purified by anti-flag M2 affinity chromatography. Flag-PRMT6-His was eluted with 200 ug/ml FLAG peptide in the same buffer. Pooled fractions were dialysed in 20 mM Tris, 150 mM NaCl, 10% glycerol and 5 mM β-mercaptoethanol, pH 7.8.
as §2, with “PRMT6” for “PRMT3”, “Compounds in 100% DMSO (1 ul) were spotted into a polypropylene 384-well V-bottom plates (Greiner) using a Platemate Plus outfitted with a 384-channel head (Thermo Scientific).” left out, “PRMT6,” for “PRMT3,”, “The final concentrations of the components were as follows: PRMT3 was 0.5 nM, ^3H-SAM was 100 nM, non-radiolabeled SAM was 1.8 uM, peptide was 330 nM, SAH in the minimum signal control wells was 1 mM, and the DMSO concentration was 2%.” left out, “non-radiolabeled SAM” for “potassium chloride”, “400 uM, which dilutes the ^3H-SAM to a level where its incorporation into the peptide substrate is no longer detectable.” for “100 mM.”
as §3, §4

T3 sequence (Q96LA8 with tags, fused parts or gaps): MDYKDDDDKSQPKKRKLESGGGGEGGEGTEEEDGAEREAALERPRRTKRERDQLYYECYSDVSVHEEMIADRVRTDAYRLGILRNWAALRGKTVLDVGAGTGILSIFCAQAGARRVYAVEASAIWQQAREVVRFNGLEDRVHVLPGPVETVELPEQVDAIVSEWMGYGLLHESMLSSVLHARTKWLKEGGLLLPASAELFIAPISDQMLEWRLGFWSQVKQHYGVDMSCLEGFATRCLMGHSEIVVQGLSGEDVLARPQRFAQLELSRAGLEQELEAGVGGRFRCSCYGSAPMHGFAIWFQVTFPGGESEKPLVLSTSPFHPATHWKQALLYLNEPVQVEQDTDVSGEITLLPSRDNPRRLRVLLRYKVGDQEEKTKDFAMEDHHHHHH
T2 sequence (Q99873 with tags, fused parts or gaps): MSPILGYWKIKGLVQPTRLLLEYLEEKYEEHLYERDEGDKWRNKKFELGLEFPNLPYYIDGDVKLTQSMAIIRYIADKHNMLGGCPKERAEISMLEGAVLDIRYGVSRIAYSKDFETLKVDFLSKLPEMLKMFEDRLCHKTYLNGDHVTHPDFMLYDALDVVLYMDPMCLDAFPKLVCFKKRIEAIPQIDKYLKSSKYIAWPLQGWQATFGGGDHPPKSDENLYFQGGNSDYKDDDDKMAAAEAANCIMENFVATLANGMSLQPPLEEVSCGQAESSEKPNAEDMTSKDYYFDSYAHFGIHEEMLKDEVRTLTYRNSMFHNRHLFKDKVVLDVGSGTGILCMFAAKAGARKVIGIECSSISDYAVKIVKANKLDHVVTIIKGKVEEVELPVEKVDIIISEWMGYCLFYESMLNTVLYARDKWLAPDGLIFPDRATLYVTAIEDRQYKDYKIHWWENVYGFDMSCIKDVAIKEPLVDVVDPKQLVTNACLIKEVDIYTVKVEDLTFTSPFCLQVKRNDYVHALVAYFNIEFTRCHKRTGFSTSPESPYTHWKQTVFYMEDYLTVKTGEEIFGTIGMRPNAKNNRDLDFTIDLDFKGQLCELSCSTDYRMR
T1 sequence (O60678 with tags, fused parts or gaps): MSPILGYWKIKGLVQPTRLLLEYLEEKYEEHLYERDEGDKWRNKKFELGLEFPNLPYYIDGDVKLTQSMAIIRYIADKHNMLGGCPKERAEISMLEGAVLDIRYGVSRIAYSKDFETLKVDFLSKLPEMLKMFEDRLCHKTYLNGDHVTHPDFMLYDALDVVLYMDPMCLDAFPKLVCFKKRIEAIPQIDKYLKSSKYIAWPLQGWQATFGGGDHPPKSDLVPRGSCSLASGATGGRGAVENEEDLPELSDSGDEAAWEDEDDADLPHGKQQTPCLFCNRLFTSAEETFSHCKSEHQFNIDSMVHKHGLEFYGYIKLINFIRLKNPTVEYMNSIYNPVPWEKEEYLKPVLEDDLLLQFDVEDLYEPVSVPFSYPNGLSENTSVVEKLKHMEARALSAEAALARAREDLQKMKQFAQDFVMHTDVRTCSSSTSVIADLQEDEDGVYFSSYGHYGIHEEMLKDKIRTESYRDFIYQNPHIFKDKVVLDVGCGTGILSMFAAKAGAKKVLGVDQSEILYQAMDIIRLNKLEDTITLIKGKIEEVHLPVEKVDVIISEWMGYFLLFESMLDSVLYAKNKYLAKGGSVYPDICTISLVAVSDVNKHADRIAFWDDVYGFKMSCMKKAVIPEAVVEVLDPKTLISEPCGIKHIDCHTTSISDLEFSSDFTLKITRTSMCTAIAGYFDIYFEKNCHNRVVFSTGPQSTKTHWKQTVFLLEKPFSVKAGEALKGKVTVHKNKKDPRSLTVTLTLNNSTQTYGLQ

Structure (SMILES) | IC50 (Full-length human PRMT3) [nM] | EC30 [1] [nM] | IC50 [2] [nM] | IC50 (Full-length human PRMT6) [nM]
CC(C)Cc1ccc(-c2n[nH]cc2CN(C)CCN)cc1 [Compound 165] | 1010 to 3000 | < 3000 | – | –
CNCCN(C)Cc1c[nH]nc1-c1cc(CC(C)C)cc(CC(C)C)c1 [Compound 281] | – | 3010 to 12000 | < 100 | 101 to 1000
CNCCN(C)Cc1c[nH]nc1-c1cc(Cl)c(OCC2CC2)c(Cl)c1 [Compound 282] | – | < 3000 | < 100 | < 100
